Measurements as given in US11149019B2, “Phenylpyridine derivative and pharmaceutical composition comprising the same” (Daewoong Pharmaceutical Co., Ltd., priority 2017, dated 2021).
pIC50: −log10 of the molar value.

Experiments:
ITK = target: T1, ITK (Homo sapiens, UniProt Q08881); assay: ADP-Glo + ITK Kinase enzyme system kit, inhibitory activity against ITK; format: biochemical; conditions: ITK enzyme 0.4 ng/ul, ATP final concentration of 25 ul, 30° C. for 1 hour, luminescence, duplicate
T1 construct: purchased Promega Corporation
T1 sequence (Q08881 1-620): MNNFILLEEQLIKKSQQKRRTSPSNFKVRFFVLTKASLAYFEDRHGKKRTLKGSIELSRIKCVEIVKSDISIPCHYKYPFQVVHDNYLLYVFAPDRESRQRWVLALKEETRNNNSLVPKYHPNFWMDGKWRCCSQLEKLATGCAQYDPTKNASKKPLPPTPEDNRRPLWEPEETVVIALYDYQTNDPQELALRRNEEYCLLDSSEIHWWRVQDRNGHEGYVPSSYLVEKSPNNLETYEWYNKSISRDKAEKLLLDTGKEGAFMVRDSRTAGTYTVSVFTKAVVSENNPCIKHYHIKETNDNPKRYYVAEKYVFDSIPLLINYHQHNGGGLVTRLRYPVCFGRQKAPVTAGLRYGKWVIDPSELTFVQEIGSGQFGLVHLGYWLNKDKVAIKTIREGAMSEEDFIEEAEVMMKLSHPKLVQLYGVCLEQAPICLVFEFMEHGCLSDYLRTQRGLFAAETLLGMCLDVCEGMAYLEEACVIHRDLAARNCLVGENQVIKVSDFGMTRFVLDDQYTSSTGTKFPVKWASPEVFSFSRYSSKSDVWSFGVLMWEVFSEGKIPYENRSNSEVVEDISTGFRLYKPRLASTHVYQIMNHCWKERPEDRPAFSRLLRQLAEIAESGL
Method in brief: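 ITK enzyme (final 0.4 ng/ul) preincubated 15 min at room temperature with compound, either singly at 1 uM or at 1000–0.03 nM for IC50. Substrate and ATP then added, 1 h at 30° C; ADP-Glo luminescence read, in duplicate, with no-compound controls with and without enzyme.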

BTK = target: T2, BTK (Homo sapiens, UniProt Q06187); assay: ADP-Glo + BTK Kinase enzyme system kit, inhibitory activity against BTK; format: biochemical; conditions: BTK enzyme 1 ng/ul, ATP 10 μM, 30° C. for 1 hour, luminescence, duplicate
T2 construct: purchased Promega Corporation
T2 sequence (Q06187 whole entry): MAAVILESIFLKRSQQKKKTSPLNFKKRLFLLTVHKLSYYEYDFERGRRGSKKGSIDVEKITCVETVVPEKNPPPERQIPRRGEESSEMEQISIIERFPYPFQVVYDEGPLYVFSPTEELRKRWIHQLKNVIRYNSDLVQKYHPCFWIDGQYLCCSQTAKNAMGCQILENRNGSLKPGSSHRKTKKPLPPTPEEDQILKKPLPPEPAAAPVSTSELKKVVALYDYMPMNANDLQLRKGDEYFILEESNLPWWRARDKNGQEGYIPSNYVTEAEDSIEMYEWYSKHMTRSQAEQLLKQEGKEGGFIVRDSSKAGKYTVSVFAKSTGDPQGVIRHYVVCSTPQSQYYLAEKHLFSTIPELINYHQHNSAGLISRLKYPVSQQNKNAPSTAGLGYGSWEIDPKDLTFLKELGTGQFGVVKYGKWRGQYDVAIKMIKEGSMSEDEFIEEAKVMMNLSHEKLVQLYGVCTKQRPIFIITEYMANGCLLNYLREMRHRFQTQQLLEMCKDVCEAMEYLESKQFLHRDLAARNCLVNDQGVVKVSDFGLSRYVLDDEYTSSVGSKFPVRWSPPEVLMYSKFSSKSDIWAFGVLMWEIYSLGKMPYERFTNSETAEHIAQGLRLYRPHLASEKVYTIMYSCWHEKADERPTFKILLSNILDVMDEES
Method in brief: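 BTK enzyme (final 1 ng/ul) preincubated 15 min at room temperature with compound (1000 to 0.03 nM for IC50), then substrate and ATP (final 10 μM) added for 1 hour at 30° C. ADP formed detected by ADP-Glo luminescence; duplicates, IC50 calculated against no-compound and no-enzyme controls.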

## C=CC(=O)Nc1cccc(-c2cc(Cc3cccnc3)cc(Nc3ncc(C)s3)n2)c1 [Compound 73, N-(3-(6-((5-methylthiazol-2-yl)amino)-4-(pyridin-3-ylmethyl)pyridin-2-yl)phenyl)acrylamide]
ITK
  pIC50: 8.64
BTK
  pIC50: 8.60
